Assay results as given in US5688793A, “Pyridazino[4',5':3,4]pyrrolo-[2,1-a]-isoquinolines and the use thereof for preparing pharmaceutical preparations” (Boehringer Ingelheim GmbH, priority 1993, dated 1997).

System: RBL-2H3-cells
Assay: Antigen (DNP-BSA)-induced activation of sensitised RBL-2H3 cells, fluorometric cytoplasmic calcium measurement
Type: cell-based
Conditions: Rattus norvegicus, read-out: inhibition of the antigen-induced cell activation
Procedure: Individual RBL-2H3-cells (a turnout cell line related to the mast cells) adhering to glass slides are used.
The cultivation and attachment of the RBL-2H3-cells are carried out by the method described by HIDE and BEAVEN (1991). In order to sensitise the adhesive RBL-2H3-cells the cells are incubated for 2 hours at ambient temperature with a 1:2000 diluted commercial gammaglobulin E-solution against a dinitrophenol-bovine serum albumin complex (DNP-BSA-antigen). The cells are then washed. By the addition of 0.1 ml of DNP-BSA-solution (10 μg/ml) there is a massive immunological cell activation which is mediated by a cytoplasmic Ca^2+ -overload. The fluorometric calcium measurement in the cytoplasm of individual adhering RBL-2H3-cells is carried out analogously to the method described by KUDO and OGURA (1986) for neuronal cells, which is also explained hereinbefore in this specification.
The comparison used in these investigations is (10 μM) chromoglycate which brings about an approximately 50% inhibition of the antigen-induced cell activation.

**Q.** `O=C(O)c1cc(=O)c2c(OCC(O)COc3cccc4oc(C(=O)O)cc(=O)c34)cccc2o1` [chromoglycate] was tested. Which inhibition at 10 µM did it give?
**A.** ~50%

System: unselective cation channels (UCC)
Assay: Thapsigargin-stimulated calcium entry through unselective cation channels in fura-2-charged RBL-hm 1 cells
Type: cell-based, rat
Conditions: 10^-5 M test substance, Thapsigargin (0.1 μM) stimulation
Procedure: For screening purposes, fura-2-charged adhesive RBL-hm 1 cells are stimulated with […] Thapsigargin in a Ca^2+ -free incubation medium. After 4 minutes, extracellular Ca^2+ is restored to a concentration of 1.5 mM and, using the fura-2-fluorescence, the excessive increase in the cytoplasmic Ca^2+ -concentration caused by a massive transmembranal Ca^2+ -entry through unselective cation channels is recorded.
The fluorometric calcium measurement in the cytoplasm of individual adhering RBL-hm1 cells is carried out analogously to the method described by KUDO and OGURA (1986) for neuronal cells. An AXIOVERT 35 fluorescence microscope made by ZEISS is used in conjunction with an imaging system made by HAMAMATSU, consisting of the ICMS-image processing system, residual light camera with control unit and image intensifier DVS 3000.
The kinetics of the cytoplasmic Ca^2+ -concentration is recorded continuously as a concentration/time curve after the cell activation stimulated by Thapsigargin (0.1 μM). […] The area under these curves (area under the curve=AUC) is integrated and recorded as a measurement of cell activation. The inhibitory potency of the UCC-blockers tested is determined using the following equation: [formula] […]
AUC control=area under the curve which is recorded only after the addition of the stimulant.
The percentage inhibition of UCC after Thapsigargin stimulation (0.1 μM Thapsigargin) in RBL-hm 1 cells is given. […]

**Q.** `COc1cc2c(cc1OC)-c1c3cnnc(SCCCCOc4ccccc4F)c3cn1CC2` was tested. Which “% H (10^-5 M), percentage inhibition of the calcium entry through unselective cation channels” value did it give?
**A.** 61.6%

**Q.** How did the “% H (10^-5 M), percentage inhibition of the calcium entry through unselective cation channels” value turn out when `COc1cc2c(cc1OC)-c1c3cnnc(SCc4ccc(Br)cc4)c3cn1CC2` was run?
**A.** 62.9%

**Q.** `COc1cc2c(cc1OC)-c1c3cnnc(SCc4cccc(Cl)c4)c3cn1CC2` was tested. Which “% H (10^-5 M), percentage inhibition of the calcium entry through unselective cation channels” value did it give?
**A.** 81.9%

**Q.** Which “% H (10^-5 M), percentage inhibition of the calcium entry through unselective cation channels” value does the source give for `COc1cc2c(cc1OC)-c1c3cnnc(SCc4ccc(F)cc4)c3cn1CC2` here?
**A.** 94.6%

**Q.** How did the “% H (10^-5 M), percentage inhibition of the calcium entry through unselective cation channels” value turn out when `COc1cc2c(cc1OC)-c1c3cnnc(SCc4ccccc4)c3cn1CC2` was run?
**A.** 97.5%

**Q.** How did the “% H (10^-5 M), percentage inhibition of the calcium entry through unselective cation channels” value turn out when `COc1cc2c(cc1OC)-c1c3cnnc(OC)c3cn1CC2` [CH3 (X:O), 5,6-Dihydro-2,3,9-trimethoxypyridazino[4',5':3,4]-pyrrolo[2,1-a]isoquinoline] was run?
**A.** 62.5%

**Q.** With `COc1cc2c(cc1OC)-c1c3cnnc(SC)c3cn1CC2` [CH3 (X:S), reference compound] as the compound, how does the “% H (10^-5 M), percentage inhibition of the calcium entry through unselective cation channels” value read?
**A.** 46.4%
